Results taken from the NIST ThermoML archive (doi:10.1021/acs.jced.8b00132).
Values joined by “and” are separate entries in the source; they are usually repeats but may differ in a detail not shown here. Identical values can stand only once. ± gives the expanded uncertainty stated by the source.

O=C(C(F)(F)C(F)(F)F)C(F)(C(F)(F)F)C(F)(F)F [dodecafluoro-2-methylpentan-3-one]
thermal conductivity (329.25 K, 73 kPa, Gas, hot wire): 0.0137 ± 0.00064 W/m/K
thermal conductivity (329.26 K, 72 kPa, Gas, hot wire): 0.01377 ± 0.00065 W/m/K and 0.01374 ± 0.00065 W/m/K
thermal conductivity (329.31 K, 120 kPa, Gas, hot wire): 0.01393 ± 0.00066 W/m/K
thermal conductivity (329.32 K, 120 kPa, Gas, hot wire): 0.01375 ± 0.00065 W/m/K
thermal conductivity (329.34 K, 27 kPa, Gas, hot wire): 0.01343 ± 0.00064 W/m/K
thermal conductivity (329.35 K, 27 kPa, Gas, hot wire): 0.01345 ± 0.00064 W/m/K
thermal conductivity (329.36 K, 26 kPa, Gas, hot wire): 0.01404 ± 0.00066 W/m/K
thermal conductivity (329.37 K, 26 kPa, Gas, hot wire): 0.01398 ± 0.00066 W/m/K
thermal conductivity (329.38 K, 120 kPa, Gas, hot wire): 0.01375 ± 0.00065 W/m/K
thermal conductivity (329.39 K, 105 kPa, Gas, hot wire): 0.01386 ± 0.00065 W/m/K
thermal conductivity (329.39 K, 120 kPa, Gas, hot wire): 0.01376 ± 0.00065 W/m/K
thermal conductivity (329.4 K, 105 kPa, Gas, hot wire): 0.01386 ± 0.00065 W/m/K
thermal conductivity (329.42 K, 73 kPa, Gas, hot wire): 0.01371 ± 0.00065 W/m/K and 0.01373 ± 0.00066 W/m/K
thermal conductivity (329.43 K, 72 kPa, Gas, hot wire): 0.01372 ± 0.00065 W/m/K and 0.01375 ± 0.00065 W/m/K
thermal conductivity (329.43 K, 67798 kPa, Liquid, transient hot wire): 0.07589 ± 0.0016 W/m/K
thermal conductivity (329.43 K, 67830 kPa, Liquid, transient hot wire): 0.07595 ± 0.0016 W/m/K
thermal conductivity (329.47 K, 120 kPa, Gas, hot wire): 0.01394 ± 0.00066 W/m/K
thermal conductivity (329.48 K, 120 kPa, Gas, hot wire): 0.01386 ± 0.00065 W/m/K
thermal conductivity (329.48 K, 57461 kPa, Liquid, transient hot wire): 0.0733 ± 0.0015 W/m/K
thermal conductivity (329.49 K, 57474 kPa, Liquid, transient hot wire): 0.07325 ± 0.0015 W/m/K
thermal conductivity (329.5 K, 26 kPa, Gas, hot wire): 0.01349 ± 0.00064 W/m/K
thermal conductivity (329.51 K, 27 kPa, Gas, hot wire): 0.01348 ± 0.00064 W/m/K
thermal conductivity (329.52 K, 26 kPa, Gas, hot wire): 0.01408 ± 0.00066 W/m/K
thermal conductivity (329.53 K, 26 kPa, Gas, hot wire): 0.01404 ± 0.00066 W/m/K
thermal conductivity (329.56 K, 46607 kPa, Liquid, transient hot wire): 0.07024 ± 0.0014 W/m/K
thermal conductivity (329.56 K, 46614 kPa, Liquid, transient hot wire): 0.07022 ± 0.0014 W/m/K
thermal conductivity (329.57 K, 105 kPa, Gas, hot wire): 0.01395 ± 0.00066 W/m/K and 0.01394 ± 0.00066 W/m/K
thermal conductivity (329.57 K, 120 kPa, Gas, hot wire): 0.01381 ± 0.00065 W/m/K
thermal conductivity (329.58 K, 120 kPa, Gas, hot wire): 0.01371 ± 0.00065 W/m/K
thermal conductivity (329.6 K, 72 kPa, Gas, hot wire): 0.01381 ± 0.00065 W/m/K
thermal conductivity (329.6 K, 73 kPa, Gas, hot wire): 0.01369 ± 0.00065 W/m/K and 0.01372 ± 0.00065 W/m/K
thermal conductivity (329.6 K, 67772 kPa, Liquid, transient hot wire): 0.07593 ± 0.0016 W/m/K
thermal conductivity (329.6 K, 67790 kPa, Liquid, transient hot wire): 0.07593 ± 0.0016 W/m/K
thermal conductivity (329.61 K, 72 kPa, Gas, hot wire): 0.01376 ± 0.00065 W/m/K
thermal conductivity (329.63 K, 36730 kPa, Liquid, transient hot wire): 0.06726 ± 0.0014 W/m/K
thermal conductivity (329.63 K, 36735 kPa, Liquid, transient hot wire): 0.06721 ± 0.0014 W/m/K
thermal conductivity (329.65 K, 120 kPa, Gas, hot wire): 0.01392 ± 0.00065 W/m/K
thermal conductivity (329.66 K, 119 kPa, Gas, hot wire): 0.0139 ± 0.00065 W/m/K
thermal conductivity (329.66 K, 57448 kPa, Liquid, transient hot wire): 0.07322 ± 0.0015 W/m/K
thermal conductivity (329.68 K, 27 kPa, Gas, hot wire): 0.01357 ± 0.00064 W/m/K
thermal conductivity (329.68 K, 27945 kPa, Liquid, transient hot wire): 0.06427 ± 0.0013 W/m/K
thermal conductivity (329.68 K, 27946 kPa, Liquid, transient hot wire): 0.0643 ± 0.0013 W/m/K
thermal conductivity (329.68 K, 57441 kPa, Liquid, transient hot wire): 0.07323 ± 0.0015 W/m/K
thermal conductivity (329.69 K, 27 kPa, Gas, hot wire): 0.0135 ± 0.00064 W/m/K
thermal conductivity (329.7 K, 26 kPa, Gas, hot wire): 0.01403 ± 0.00066 W/m/K and 0.01401 ± 0.00066 W/m/K
thermal conductivity (329.74 K, 20516 kPa, Liquid, transient hot wire): 0.0619 ± 0.0013 W/m/K
thermal conductivity (329.74 K, 20518 kPa, Liquid, transient hot wire): 0.0616 ± 0.0013 W/m/K
thermal conductivity (329.74 K, 46598 kPa, Liquid, transient hot wire): 0.07033 ± 0.0014 W/m/K
thermal conductivity (329.74 K, 46602 kPa, Liquid, transient hot wire): 0.07022 ± 0.0014 W/m/K
thermal conductivity (329.75 K, 104 kPa, Gas, hot wire): 0.01402 ± 0.00067 W/m/K
thermal conductivity (329.76 K, 104 kPa, Gas, hot wire): 0.01399 ± 0.00066 W/m/K
thermal conductivity (329.77 K, 120 kPa, Gas, hot wire): 0.01378 ± 0.00065 W/m/K
thermal conductivity (329.79 K, 73 kPa, Gas, hot wire): 0.01373 ± 0.00065 W/m/K
thermal conductivity (329.79 K, 120 kPa, Gas, hot wire): 0.01373 ± 0.00065 W/m/K
thermal conductivity (329.8 K, 14125 kPa, Liquid, transient hot wire): 0.05898 ± 0.0012 W/m/K
thermal conductivity (329.8 K, 14126 kPa, Liquid, transient hot wire): 0.05901 ± 0.0012 W/m/K
thermal conductivity (329.8 K, 67755 kPa, Liquid, transient hot wire): 0.07593 ± 0.0016 W/m/K
thermal conductivity (329.81 K, 67741 kPa, Liquid, transient hot wire): 0.07589 ± 0.0016 W/m/K
thermal conductivity (329.82 K, 36726 kPa, Liquid, transient hot wire): 0.06718 ± 0.0014 W/m/K
thermal conductivity (329.82 K, 36730 kPa, Liquid, transient hot wire): 0.0673 ± 0.0014 W/m/K
thermal conductivity (329.83 K, 118 kPa, Gas, hot wire): 0.01407 ± 0.00066 W/m/K
thermal conductivity (329.84 K, 118 kPa, Gas, hot wire): 0.01403 ± 0.00066 W/m/K
thermal conductivity (329.85 K, 73 kPa, Gas, hot wire): 0.01336 ± 0.00063 W/m/K
thermal conductivity (329.86 K, 72 kPa, Gas, hot wire): 0.01334 ± 0.00063 W/m/K
thermal conductivity (329.86 K, 8619 kPa, Liquid, transient hot wire): 0.05649 ± 0.0012 W/m/K
thermal conductivity (329.86 K, 57414 kPa, Liquid, transient hot wire): 0.07321 ± 0.0015 W/m/K
thermal conductivity (329.86 K, 57423 kPa, Liquid, transient hot wire): 0.07327 ± 0.0015 W/m/K
thermal conductivity (329.87 K, 27 kPa, Gas, hot wire): 0.01359 ± 0.00064 W/m/K and 0.01357 ± 0.00064 W/m/K
thermal conductivity (329.87 K, 8621 kPa, Liquid, transient hot wire): 0.05651 ± 0.0012 W/m/K
thermal conductivity (329.87 K, 27941 kPa, Liquid, transient hot wire): 0.06427 ± 0.0013 W/m/K
thermal conductivity (329.88 K, 27942 kPa, Liquid, transient hot wire): 0.06429 ± 0.0013 W/m/K
thermal conductivity (329.91 K, 4467 kPa, Liquid, transient hot wire): 0.05452 ± 0.0011 W/m/K
thermal conductivity (329.91 K, 4470 kPa, Liquid, transient hot wire): 0.05445 ± 0.0011 W/m/K
thermal conductivity (329.94 K, 26 kPa, Gas, hot wire): 0.01354 ± 0.00064 W/m/K and 0.01352 ± 0.00064 W/m/K
thermal conductivity (329.94 K, 20524 kPa, Liquid, transient hot wire): 0.06153 ± 0.0013 W/m/K
thermal conductivity (329.94 K, 46588 kPa, Liquid, transient hot wire): 0.07021 ± 0.0014 W/m/K
thermal conductivity (329.94 K, 46601 kPa, Liquid, transient hot wire): 0.07018 ± 0.0014 W/m/K
thermal conductivity (329.95 K, 20523 kPa, Liquid, transient hot wire): 0.06156 ± 0.0013 W/m/K
thermal conductivity (329.97 K, 120 kPa, Gas, hot wire): 0.01385 ± 0.00067 W/m/K
thermal conductivity (329.97 K, 177 kPa, Liquid, transient hot wire): 0.05208 ± 0.0011 W/m/K
thermal conductivity (329.97 K, 178 kPa, Liquid, transient hot wire): 0.05208 ± 0.0011 W/m/K
thermal conductivity (329.99 K, 120 kPa, Gas, hot wire): 0.01382 ± 0.00067 W/m/K
thermal conductivity (329.99 K, 180 kPa, Liquid, transient hot wire): 0.05206 ± 0.0011 W/m/K
thermal conductivity (329.99 K, 67709 kPa, Liquid, transient hot wire): 0.0759 ± 0.0016 W/m/K
